Measured values taken from patent US9056108B2, “Method of treating atrial fibrillation” (Gilead Sciences, Inc., priority 2009, dated 2015).

Key:
[1] = test system: coronary-perfused canine left ventricular (LV) preparations; assay: Electrophysiology in isolated coronary-perfused canine left ventricular preparations; details: current in vitro investigation
Protocol: Experiments were performed using isolated coronary-perfused canine right atrial (RA) and left ventricular (LV) preparations (≈3×1.5×1 cm). Isolation and perfusion of the preparations were as previously described.^9, 15, 16 Briefly, preparations were dissected from hearts removed from anesthetized (sodium pentobarbital) adult mongrel dogs (20-30 kg). Unfolded RA with attached rim of the right ventricle was cannulated and perfused with cold cardioplegic solution (4-8° C.) through the ostium of the right coronary artery; the LV wedge was perfused through a diagonal branch of the left anterior descending coronary artery. Unperfused tissue was removed with a razor blade. […]
Transmembrane action potential (AP) recordings were obtained using floating glass microelectrodes at a sampling rate of 40 kHz. A pseudo-electrocardiogram (ECG) was recorded using two electrodes consisting of Ag/AgCl half cells placed in the Tyrode's solution bathing the preparation, 1.0 to 1.5 cm from the two opposite sides of the atrial or ventricular coronary-perfused preparations. […] Diastolic threshold of excitation (DTE) was determined by increasing stimulus intensity in 0.01 mA steps. Effective refractory period (ERP) was measured by delivering premature stimuli at progressively shorter S1-S2 intervals after every 10 basic beats at a pacing cycle length (CL) of 500 ms (5 ms steps; 2 times DTE). […]

[2] = test system: female rabbit isolated heart treated with E-4031; assay: Torsades de pointes in rabbit isolated heart treated with E-4031; details: E-4031 60 nM; dronedarone 10 μM
Protocol: Each rabbit was sedated using intramuscular injections of 6 mg/kg xylazine and 40 mg/kg ketamine and then anesthetized using a “cocktail” of ketamine (15 mg/kg)+xylazine (4 mg/kg) in 1.5 ml saline. The ketamine/xylazine cocktail was administered as an i.v. bolus via the marginal ear vein. After anesthesia was confirmed, the thorax was opened and the heart was quickly excised. The heart was placed in a modified Krebs-Henseleit (K-H) physiological saline solution at room temperature. […] CPP was measured (with a Biopac MP 150 pressure transducer, Goleta, Calif.) from a side port of the aortic catheter. To facilitate exit of fluid from the chamber of the left ventricle (LV), the leaflets of the mitral valve were trimmed with fine spring-handled scissors. The right atrial wall was partially removed.
Complete AV block was induced by thermo-ablation of the AV nodal area. […] A bipolar Teflon-coated electrode was placed on the right ventricular septum to pace the heart. Electrical stimuli 3 ms in width and 3-fold threshold amplitude were delivered to the pacing electrode at a frequency of 1 Hz throughout the experiments using a Grass S48 stimulator (W. Warwick, R.I.).
After initiation of ventricular pacing, a 30-40 min equilibration delay was allowed for heart rate (and CPP) to achieve a steady state, an essential experimental condition for recording a good quality monophasic action potential (MAP) recording.
Monophasic action potential (MAP) and ECG electrodes from Harvard Apparatus Inc. (Holliston, Mass.) were used to record heart rate (in beats per minute, or bpm), left ventricular MAPs and a bipolar ECG MAP electrodes were pressure contact Ag—AgCl cells attached to a circular holder with springs to keep the electrodes in contact with the LV epicardial surface. Two MAP electrodes were placed on the epicardial ventricular free wall below the level of the atrial-ventricular valves, one at the base to record a basal MAP and one at the apex to record an apical MAP. […] Signals were saved on a computer hard disk for subsequent analysis. Bipolar electrocardiograms (ECG) were generated using an isolated-heart ECG apparatus (Harvard Apparatus, Holliston, Mass.) attached to Biopac amplifier system.

Structure (SMILES): CCCCc1oc2ccc(NS(C)(=O)=O)cc2c1C(=O)c1ccc(OCCCN(CCCC)CCCC)cc1 [Dronedarone, N-(2-Butyl-3-(p-(3-(dibutylamino)propoxy)benzoyl)-5-benzofuranyl)methanesulfonamide]
- Prolongation of ventricular ERP [1]: 4%
- Occurrences of torsades de pointes (TdP) (hearts) [2]: 1/6
